PubChem BioAssay AID248 (DTP/NCI, 2004)
Where “and” joins values, the source holds several entries; their conditions need not be identical. Equal entries are not always repeated. Inconclusive results and toxic doses are left out.

Test system: L1210 leukemia ip in BDF1 mice, survival T/C
Experiment: NCI In Vivo Anticancer Drug Screen. Data for tumor model L1210 Leukemia (intraperitoneal) in B6D2F1 (BDF1) mice
Settings: higher = longer survival
Summary of the method: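 Transplantable tumor model; survival measured in treated vs vehicle control mice. Value = treated/control.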

[1] = endpoint: mean survival time, dose: 100.0 mg/kg/injection, schedule: Q04DX002 (ip), vehicle: Klucel (hydroxypropylcellulose) (HPC)
[2] = endpoint: mean survival time, dose: 200.0 mg/kg/injection, schedule: Q04DX002 (ip), vehicle: Klucel (hydroxypropylcellulose) (HPC)
[3] = endpoint: mean survival time, dose: 100.0 mg/kg/injection, schedule: Q01DX001 (ip), vehicle: saline
[4] = endpoint: mean survival time, dose: 200.0 mg/kg/injection, schedule: Q01DX001 (ip), vehicle: saline
[5] = endpoint: mean survival time, dose: 400.0 mg/kg/injection, schedule: Q01DX001 (ip), vehicle: saline
[6] = endpoint: mean survival time, dose: 100.0 mg/kg/injection, schedule: Q01DX001 (ip), vehicle: Klucel (hydroxypropylcellulose) (HPC)
[7] = endpoint: mean survival time, dose: 200.0 mg/kg/injection, schedule: Q01DX001 (ip), vehicle: Klucel (hydroxypropylcellulose) (HPC)
[8] = endpoint: mean survival time, dose: 400.0 mg/kg/injection, schedule: Q01DX001 (ip), vehicle: Klucel (hydroxypropylcellulose) (HPC)

ClCC[n+]1ccc(-c2cc[n+](CCCl)cc2)cc1
T/C (endpoint: mean survival time, dose: 156.0 micrograms/kg/injection, schedule: Q01DX Z (ip), vehicle: saline): 110 % of control
T/C (endpoint: mean survival time, dose: 313.0 micrograms/kg/injection, schedule: Q01DX Z (ip), vehicle: saline): 100 % of control
T/C (endpoint: mean survival time, dose: 625.0 micrograms/kg/injection, schedule: Q01DX Z (ip), vehicle: saline): 98 % of control
T/C (endpoint: mean survival time, dose: 1250.0 micrograms/kg/injection, schedule: Q01DX Z (ip), vehicle: saline): 98 % of control

N#Cc1ccc(-n2cccc2)cc1
T/C (endpoint: mean survival time, dose: 100.0 mg/kg/injection, schedule: Q01DX001 (ip), vehicle: steriod suspending solution): 100 % of control
T/C (endpoint: mean survival time, dose: 200.0 mg/kg/injection, schedule: Q01DX001 (ip), vehicle: steriod suspending solution): 100 % of control
T/C (endpoint: mean survival time, dose: 400.0 mg/kg/injection, schedule: Q01DX001 (ip), vehicle: steriod suspending solution): 101 % of control

Cc1[nH]c2ccccc2c1C1Cc2ccccc2N1 (stereo not drawn)
T/C (endpoint: mean survival time, dose: 100.0 mg/kg/injection, schedule: Q01DX001 (ip), vehicle: other): 97 % of control and 103 % of control
T/C (endpoint: mean survival time, dose: 100.0 mg/kg/injection, schedule: Q01DX009 (ip), vehicle: other): 101 % of control
T/C (endpoint: mean survival time, dose: 200.0 mg/kg/injection, schedule: Q01DX001 (ip), vehicle: other): 100 % of control and 90 % of control
T/C (endpoint: mean survival time, dose: 200.0 mg/kg/injection, schedule: Q01DX009 (ip), vehicle: other): 101 % of control
T/C (endpoint: mean survival time, dose: 400.0 mg/kg/injection, schedule: Q01DX001 (ip), vehicle: other): 94 % of control
T/C (endpoint: mean survival time, dose: 400.0 mg/kg/injection, schedule: Q01DX009 (ip), vehicle: other): 107 % of control

Cc1cccc(NC(=S)N2CCCCC2)c1
T/C (endpoint: mean survival time, dose: 100.0 mg/kg/injection, schedule: Q04DX002 (ip), vehicle: saline with Tween-80): 100 % of control
T/C (endpoint: mean survival time, dose: 200.0 mg/kg/injection, schedule: Q04DX002 (ip), vehicle: saline with Tween-80): 100 % of control
T/C (endpoint: mean survival time, dose: 400.0 mg/kg/injection, schedule: Q04DX002 (ip), vehicle: saline with Tween-80): 100 % of control

CCCC/C=C/C(C)O (stereo not drawn)
T/C (endpoint: mean survival time, dose: 50.0 mg/kg/injection, schedule: Q01DX009 (ip), vehicle: saline with Tween-80): 101 % of control
T/C (endpoint: mean survival time, dose: 100.0 mg/kg/injection, schedule: Q01DX009 (ip), vehicle: saline with Tween-80): 105 % of control
T/C (endpoint: mean survival time, dose: 200.0 mg/kg/injection, schedule: Q01DX009 (ip), vehicle: saline with Tween-80): 97 % of control

Cc1ccc(C)c(S(N)(=O)=O)c1
T/C [1]: 106 % of control
T/C [2]: 100 % of control
T/C (endpoint: mean survival time, dose: 400.0 mg/kg/injection, schedule: Q04DX002 (ip), vehicle: Klucel (hydroxypropylcellulose) (HPC)): 103 % of control

CCCP(C)(C)=S
T/C [1]: 90 % of control
T/C [2]: 90 % of control

Cc1ccnc(NC(=O)NCCCl)c1
T/C (endpoint: mean survival time, dose: 100.0 mg/kg/injection, schedule: Q01DX001 (ip), vehicle: carboxymethylcellulose (CMC)): 103 % of control
T/C (endpoint: mean survival time, dose: 200.0 mg/kg/injection, schedule: Q01DX001 (ip), vehicle: carboxymethylcellulose (CMC)): 108 % of control
T/C (endpoint: mean survival time, dose: 400.0 mg/kg/injection, schedule: Q01DX001 (ip), vehicle: carboxymethylcellulose (CMC)): 108 % of control

CSc1nc(N)nc2c1ncn2CCCl
T/C (endpoint: mean survival time, dose: 100.0 mg/kg/injection, schedule: Q04DX003 (ip), vehicle: saline): 103 % of control
T/C (endpoint: mean survival time, dose: 200.0 mg/kg/injection, schedule: Q04DX003 (ip), vehicle: saline): 96 % of control
T/C (endpoint: mean survival time, dose: 400.0 mg/kg/injection, schedule: Q04DX003 (ip), vehicle: saline): 97 % of control

COc1ccc(CC2NCCc3cc(OC)c(OC)cc32)cc1OC (stereo not drawn)
T/C (endpoint: mean survival time, dose: 75.0 mg/kg/injection, schedule: Q01DX001 (ip), vehicle: saline): 101 % of control

NC(=S)N1CCCC1
T/C (endpoint: mean survival time, dose: 100.0 mg/kg/injection, schedule: Q04DX003 (ip), vehicle: Klucel (hydroxypropylcellulose) (HPC)): 93 % of control
T/C (endpoint: mean survival time, dose: 200.0 mg/kg/injection, schedule: Q04DX003 (ip), vehicle: Klucel (hydroxypropylcellulose) (HPC)): 96 % of control
T/C (endpoint: mean survival time, dose: 400.0 mg/kg/injection, schedule: Q04DX003 (ip), vehicle: Klucel (hydroxypropylcellulose) (HPC)): 93 % of control

NC(=O)OCC(O)COc1ccc(Cl)cc1 (stereo not drawn)
T/C [3]: 95 % of control
T/C [4]: 97 % of control
T/C [5]: 95 % of control

C/C(=N/N=C(N)N)c1ccc(NC(=O)Nc2ccc(/C(C)=N/N=C(N)N)cc2)cc1
T/C (endpoint: mean survival time, dose: 8.0 mg/kg/injection, schedule: Q03HX016 (ip), vehicle: other): 159 % of control
T/C (endpoint: mean survival time, dose: 16.0 mg/kg/injection, schedule: Q01DX005 (ip), vehicle: other): 179 % of control
T/C (endpoint: mean survival time, dose: 16.0 mg/kg/injection, schedule: Q01DX009 (ip), vehicle: other): 236 % of control
T/C (endpoint: mean survival time, dose: 20.0 mg/kg/injection, schedule: Q01DX005 (ip), vehicle: saline): 121 % of control
T/C (endpoint: mean survival time, dose: 32.0 mg/kg/injection, schedule: Q01DX005 (ip), vehicle: other): 213 % of control
T/C (endpoint: mean survival time, dose: 32.0 mg/kg/injection, schedule: Q01DX009 (ip), vehicle: other): 239 % of control
T/C (endpoint: mean survival time, dose: 32.0 mg/kg/injection, schedule: Q01DX009 (ip), vehicle: water): 154 % of control and 205 % of control
T/C (endpoint: mean survival time, dose: 40.0 mg/kg/injection, schedule: Q01DX005 (ip), vehicle: saline): 159 % of control
T/C (endpoint: mean survival time, dose: 53.0 mg/kg/injection, schedule: Q01DX009 (ip), vehicle: water): 218 % of control and 255 % of control
T/C (endpoint: mean survival time, dose: 64.0 mg/kg/injection, schedule: Q01DX001 (ip), vehicle: other): 116 % of control
T/C (endpoint: mean survival time, dose: 64.0 mg/kg/injection, schedule: Q01DX001 (oral), vehicle: other): 111 % of control
T/C (endpoint: mean survival time, dose: 64.0 mg/kg/injection, schedule: Q01DX009 (oral), vehicle: other): 111 % of control
T/C (endpoint: mean survival time, dose: 64.0 mg/kg/injection, schedule: Q04DX003 (ip), vehicle: other): 159 % of control
T/C (endpoint: mean survival time, dose: 64.0 mg/kg/injection, schedule: Q08DX002 (ip), vehicle: other): 122 % of control
T/C (endpoint: mean survival time, dose: 80.0 mg/kg/injection, schedule: Q01DX005 (ip), vehicle: saline): 206 % of control
T/C (endpoint: mean survival time, dose: 88.0 mg/kg/injection, schedule: Q01DX009 (ip), vehicle: water): 223 % of control and 251 % of control
T/C (endpoint: mean survival time, dose: 128.0 mg/kg/injection, schedule: Q01DX001 (oral), vehicle: other): 101 % of control
T/C (endpoint: mean survival time, dose: 128.0 mg/kg/injection, schedule: Q01DX009 (oral), vehicle: other): 106 % of control
T/C (endpoint: mean survival time, dose: 147.0 mg/kg/injection, schedule: Q01DX009 (ip), vehicle: water): 323 % of control
T/C (endpoint: mean survival time, dose: 160.0 mg/kg/injection, schedule: Q01DX005 (ip), vehicle: saline): 197 % of control
T/C (endpoint: mean survival time, dose: 245.0 mg/kg/injection, schedule: Q01DX009 (ip), vehicle: water): 227 % of control
T/C (endpoint: mean survival time, dose: 256.0 mg/kg/injection, schedule: Q01DX001 (oral), vehicle: other): 101 % of control
T/C (endpoint: mean survival time, dose: 256.0 mg/kg/injection, schedule: Q01DX009 (oral), vehicle: other): 108 % of control
T/C (endpoint: mean survival time, dose: 320.0 mg/kg/injection, schedule: Q01DX005 (ip), vehicle: saline): 173 % of control
T/C (endpoint: mean survival time, dose: 512.0 mg/kg/injection, schedule: Q01DX001 (oral), vehicle: other): 96 % of control
T/C (endpoint: mean survival time, dose: 512.0 mg/kg/injection, schedule: Q01DX009 (oral), vehicle: other): 108 % of control
T/C (endpoint: mean survival time, dose: 1024.0 mg/kg/injection, schedule: Q01DX001 (oral), vehicle: other): 97 % of control
T/C (endpoint: mean survival time, dose: 1024.0 mg/kg/injection, schedule: Q01DX009 (oral), vehicle: other): 109 % of control
T/C (endpoint: median survival time, dose: 5.0 mg/kg/injection, schedule: Q03HX024 (ip), vehicle: water): 152 % of control
T/C (endpoint: median survival time, dose: 15.0 mg/kg/injection, schedule: Q03HX024 (ip), vehicle: water): 302 % of control
T/C (endpoint: median survival time, dose: 30.0 mg/kg/injection, schedule: Q03HX024 (ip), vehicle: water): 34 % of control
T/C (endpoint: median survival time, dose: 45.0 mg/kg/injection, schedule: Q03HX024 (ip), vehicle: water): 31 % of control

COc1c(Cl)c(Cl)c(Cl)c(Cl)c1Cl
T/C (endpoint: mean survival time, dose: 100.0 mg/kg/injection, schedule: Q01DX009 (ip), vehicle: saline): 89 % of control
T/C (endpoint: mean survival time, dose: 100.0 mg/kg/injection, schedule: Q04DX003 (ip), vehicle: acetone): 95 % of control
T/C (endpoint: mean survival time, dose: 200.0 mg/kg/injection, schedule: Q01DX009 (ip), vehicle: saline): 89 % of control
T/C (endpoint: mean survival time, dose: 200.0 mg/kg/injection, schedule: Q04DX003 (ip), vehicle: acetone): 94 % of control
T/C (endpoint: mean survival time, dose: 400.0 mg/kg/injection, schedule: Q04DX003 (ip), vehicle: acetone): 96 % of control

O=[N+]([O-])C1(Br)c2ccccc2-c2nc3ccccc3cc21 (stereo not drawn)
T/C [6]: 94 % of control
T/C [7]: 97 % of control
T/C [8]: 94 % of control

CCOc1c(OC)c2c3c(c(-c4c(C)cc5c(C(C)C)c(OCC)c(OC)c6c5c4OC6OC)c(C)cc3c1C(C)C)OC2OC (stereo not drawn)
T/C [6]: 94 % of control
T/C [7]: 93 % of control
T/C [8]: 100 % of control

CCOc1ccccc1/C=N/N1CCN(/N=C/c2ccccc2OCC)CC1
T/C [3]: 100 % of control
T/C [4]: 90 % of control
T/C [5]: 90 % of control
